The target of experiment [1] is T1, Human ACC1 (Homo sapiens, UniProt Q13085).
T1 construct: made in house; host or cells: SF-9 insect cells (baculovirus, pFAST-BacHTc)
In words: in vitro enzymatic ACC activity assay (malachite green, absorbance at 620 nm), ACC1. Format: biochemical. The following applies: recombinant His-tagged human ACC1, 8 μg/mL; 60 min preincubation, 20 min reaction at 30° C. The protocol:
(§1) Provided in Example A is an in vitro enzymatic ACC activity assay for activity against ACC. The binding affinity of the test compound to ACC1 or ACC2 is determined by the changes in absorbance (at 620 nm); […]. It should be noted that a variety of other expression systems and hosts are also suitable for the expression of ACC, as would be readily appreciated by one of skill in the art.
A. Purification of Human ACC1
Human ACC1 cDNA was amplified from human liver cDNA by polymerase chain reaction using primers; 5′[…]3′ (SEQ ID NO. 1) and 5′[…]3′ (SEQ ID NO: 2). The amplified DNA fragment was digested by restriction enzyme SalI and NotI, and cloned into pFAST-BacHTc (Invitrogen). This plasmid DNA was used for preparation of recombinant vaculovirus with BAC-TO-BAC Baculovirus Expression System (Invitrogen).
SF-9 cells were infected with the vaculovirus and cultured at 27° C. for 3 days. Harvested cells were homogenized in buffer A (25 mM HEPES (pH7.5), 130 mM NaCl, 1 mM EDTA, 25 mM sodium glycerophosphate, 1 mM sodium orthovanadate, 10% glycerol, complete protease inhibitor), and subjected to ultracentrifuge at 185700×g for 50 min at 4° C. ACC1 protein with 6×His-tag at the N-terminal was purified from the supernatant using Ni-NTA Super Flow Gel (QIAGEN). Eluted protein was dialysed against buffer B (50 mM HEPES (pH 7.5), 300 mM NaCl, 10 mM MgCl2, 10 mM tripotassium citrate, 2 mM dithiothreitol) and concentrated using Vivaspin20 ultrafiltration tube (Sartorius).
(§2) C. Measurement of ACC Activity
(§3) Malachite green solution was prepared by mixing 100 mL of solution A (0.12% malachite green in 5N H2SO4), 25 mL of solution B (7.5% ammonium molybdate) and 2 mL of solution C (11% TWEEN-20).
(§4) ACC1 was diluted to 8 μg/mL in reaction buffer (50 mM HEPES pH7.5, 10 mM MgCl2, 10 mM tripotassium citrate, 2 mM DTT, 0.75 mg/mL fatty acid free BSA) and 10 μL diluted enzyme solution was pored into each well of 384-well clear bottom plate. Test compound was diluted in the reaction buffer and 5 μL of the compound solution was added into each well, and the mixture was incubated at 30° C. for 60 minutes. Reaction was initiated by addition of 5 μL substrate solution (50 mM KHCO3, 200 μM ATP, 200 μM acetyl-CoA). After incubation at 30° C. for 20 minutes, reaction was terminated by addition of 5 μL malachite green solution and absorbance at 620 nm was measured.
(§5) Percent activity at each concentration of compound was calculated from the following equation:
(§6) [formula] where Abs is absorbance, Avg is average.
(§7) Data were subjected to nonlinear regression analysis using GraphPad Prism Software (GraphPad Software Inc.) to obtain IC50 values.

Experiment [2] has as its target T2, Human ACC2 (Homo sapiens, UniProt O00763).
T2 construct: made in house; host or cells: SF-9 insect cells (baculovirus, pFAST-BacHTa)
In words: in vitro enzymatic ACC activity assay (malachite green, absorbance at 620 nm), ACC2. The experiment is classed as biochemical. The following applies: recombinant His-tagged human ACC2, 6.4 μg/mL; same method as ACC1. The protocol:
as §1
B. Purification of Human ACC2
Human ACC2 cDNA except coding region for mitochondria localization sequence was amplified from human skeletal muscle cDNA by polymerase chain reaction using primers; 5′[…]3′ (SEQ ID NO: 3) and 5′[…]3′ (SEQ ID NO: 4). The amplified DNA fragment was digested by SalI and AflIII, and cloned into pFAST-BacHTa (Invitrogen). Preparation of recombinant vaculovirus, infection of the virus to SF-9 cells and purification of recombinant ACC2 protein with 6×His-tag at the N-terminal were performed in the same method as described above.
as §2, §3, §4
ACC2 was diluted to 6.4 μg/mL in reaction buffer, and the activity was measured by the same method as described for ACC1.
as §5, §6, §7

A value given as a limit tells only on which side of the number the result lay.

T2 sequence (O00763 117-2458 limits assumed): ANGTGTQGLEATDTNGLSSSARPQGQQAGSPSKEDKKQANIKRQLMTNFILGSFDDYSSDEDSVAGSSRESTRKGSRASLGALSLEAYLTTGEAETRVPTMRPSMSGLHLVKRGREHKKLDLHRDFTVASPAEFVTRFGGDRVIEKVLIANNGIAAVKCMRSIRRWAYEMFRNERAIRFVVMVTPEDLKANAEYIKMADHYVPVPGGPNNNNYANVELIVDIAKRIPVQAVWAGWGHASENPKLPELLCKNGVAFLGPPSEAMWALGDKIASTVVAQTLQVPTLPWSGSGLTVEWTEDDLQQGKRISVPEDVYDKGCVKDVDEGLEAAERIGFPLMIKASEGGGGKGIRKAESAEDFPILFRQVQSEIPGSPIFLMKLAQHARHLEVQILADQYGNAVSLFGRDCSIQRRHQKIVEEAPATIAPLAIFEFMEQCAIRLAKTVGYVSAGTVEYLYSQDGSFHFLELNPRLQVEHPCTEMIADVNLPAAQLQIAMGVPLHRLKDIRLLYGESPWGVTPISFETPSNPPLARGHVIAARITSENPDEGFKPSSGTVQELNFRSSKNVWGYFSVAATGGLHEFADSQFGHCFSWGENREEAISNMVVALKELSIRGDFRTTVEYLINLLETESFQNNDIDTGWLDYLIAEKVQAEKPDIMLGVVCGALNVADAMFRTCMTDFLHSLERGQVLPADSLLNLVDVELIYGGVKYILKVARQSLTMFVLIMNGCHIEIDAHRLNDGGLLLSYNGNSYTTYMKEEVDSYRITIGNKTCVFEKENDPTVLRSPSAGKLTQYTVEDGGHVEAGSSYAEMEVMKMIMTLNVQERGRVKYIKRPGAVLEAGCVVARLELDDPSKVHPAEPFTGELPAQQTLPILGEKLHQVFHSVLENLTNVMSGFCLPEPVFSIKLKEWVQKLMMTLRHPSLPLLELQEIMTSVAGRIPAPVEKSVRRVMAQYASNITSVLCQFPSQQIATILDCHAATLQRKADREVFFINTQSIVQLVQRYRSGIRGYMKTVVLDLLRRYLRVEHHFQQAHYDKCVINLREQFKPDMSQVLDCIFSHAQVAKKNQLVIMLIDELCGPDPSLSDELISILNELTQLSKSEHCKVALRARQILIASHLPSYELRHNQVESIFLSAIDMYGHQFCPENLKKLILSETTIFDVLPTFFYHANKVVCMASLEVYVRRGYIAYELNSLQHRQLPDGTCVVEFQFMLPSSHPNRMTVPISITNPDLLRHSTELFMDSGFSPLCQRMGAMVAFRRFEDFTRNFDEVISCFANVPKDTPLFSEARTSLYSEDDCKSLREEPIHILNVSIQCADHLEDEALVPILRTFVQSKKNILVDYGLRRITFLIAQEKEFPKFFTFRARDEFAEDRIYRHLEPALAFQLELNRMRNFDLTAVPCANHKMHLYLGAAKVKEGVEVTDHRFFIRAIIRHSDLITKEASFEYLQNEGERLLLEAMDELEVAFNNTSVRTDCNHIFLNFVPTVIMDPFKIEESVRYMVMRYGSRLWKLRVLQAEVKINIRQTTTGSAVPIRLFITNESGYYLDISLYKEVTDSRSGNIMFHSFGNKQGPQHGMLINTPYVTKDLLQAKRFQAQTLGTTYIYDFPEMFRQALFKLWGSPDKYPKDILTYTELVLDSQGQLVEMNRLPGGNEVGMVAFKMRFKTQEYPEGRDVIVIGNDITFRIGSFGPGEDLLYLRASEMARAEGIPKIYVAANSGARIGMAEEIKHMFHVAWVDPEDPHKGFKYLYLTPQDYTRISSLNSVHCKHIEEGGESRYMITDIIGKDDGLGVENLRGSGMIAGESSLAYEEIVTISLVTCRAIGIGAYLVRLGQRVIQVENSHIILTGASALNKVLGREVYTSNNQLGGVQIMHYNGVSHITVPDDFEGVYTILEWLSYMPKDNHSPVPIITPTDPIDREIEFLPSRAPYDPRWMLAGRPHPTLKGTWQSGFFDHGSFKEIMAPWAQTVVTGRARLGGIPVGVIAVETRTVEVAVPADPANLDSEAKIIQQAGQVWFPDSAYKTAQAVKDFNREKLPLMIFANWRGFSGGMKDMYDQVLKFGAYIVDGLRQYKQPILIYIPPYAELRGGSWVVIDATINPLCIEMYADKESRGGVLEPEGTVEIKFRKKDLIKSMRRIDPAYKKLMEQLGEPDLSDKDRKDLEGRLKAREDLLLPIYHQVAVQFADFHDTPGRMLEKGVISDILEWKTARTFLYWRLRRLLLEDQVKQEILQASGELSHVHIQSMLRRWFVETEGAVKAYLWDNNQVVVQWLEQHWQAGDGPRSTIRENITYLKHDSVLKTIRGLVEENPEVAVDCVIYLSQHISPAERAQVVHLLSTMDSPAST

On to `CCNC(=O)Nc1sc2ccccc2c1C(=O)N1CCC2(CC1)N=C(COc1ccccc1OC)NC2=O` [Compound 25, 1-ethyl-3-(3-(2-((2-methoxyphenoxy)methyl)-4-oxo-1,3,8-triazaspiro[4.5]dec-1-enecarbonyl)benzo[b]thiophen-2-yl)urea], for which the figures for the IC50 in experiment [1] and in experiment [2] were 1 to 10 µM and less than 1 µM, respectively.

In the case of `CCNC(=O)Nc1sc2ccccc2c1C(=O)N1CCC2(CC1)N=C(COc1ccccc1C#N)NC2=O` [Compound 26, 1-(3-(2-((2-cyanophenoxy)methyl)-4-oxo-1,3,8-triazaspiro[4.5]dec-1-enecarbonyl)benzo[b]thiophen-2-yl)-3-ethylurea], the IC50 (as a rule, the concentration at which inhibition is half-maximal) is greater than 10 µM in experiment [1] and less than 1 µM in experiment [2].

`CCNC(=O)Nc1sc2ccccc2c1C(=O)N1CCC2(CC1)N=C(COc1ccccc1C(N)=O)NC2=O` [Compound 27, 2-((8-(2-(3-ethylureido)benzo[b]thiophene-3-carbonyl)-4-oxo-1,3,8-triazaspiro[4.5]dec-1-en-2-yl)methoxy)benzamide]: the IC50 in experiment [1] is greater than 10 µM; in experiment [2], less than 1 µM.

Take `CCNC(=O)Nc1sc2ccccc2c1C(=O)N1CCC2(CC1)N=C(COC1CCCCC1)NC2=O` [Compound 28, 1-(3-(2-(cyclohexyloxymethyl)-4-oxo-1,3,8-triazaspiro[4.5]dec-1-enecarbonyl)benzo[b]thiophen-2-yl)-3-ethylurea]: the IC50 in experiment [1] was 1 to 10 µM; in experiment [2] it was less than 1 µM.

Regarding `CCNC(=O)Nc1sc2ccccc2c1C(=O)N1CCC2(CC1)N=C(COC(C)C)NC2=O` [Compound 29, 1-ethyl-3-(3-(2-(isopropoxymethyl)-4-oxo-1,3,8-triazaspiro[4.5]dec-1-enecarbonyl)benzo[b]thiophen-2-yl)urea], the IC50 in experiment [1] and in experiment [2] was 1 to 10 µM in each case.

With `CCNC(=O)Nc1sc2ccccc2c1C(=O)N1CCC2(CC1)N=C(COCC(C)C)NC2=O` [Compound 30, 1-ethyl-3-(3-(2-(isobutoxymethyl)-4-oxo-1,3,8-triazaspiro[4.5]dec-1-enecarbonyl)benzo[b]thiophen-2-yl)urea], the figures for the IC50 in experiment [1] and in experiment [2] were 1 to 10 µM and less than 1 µM, respectively.

On to `CCNC(=O)Nc1sc2c(OC)cccc2c1C(=O)N1CCC2(CC1)N=C(COCC(C)C)NC2=O` [Compound 31, 1-ethyl-3-(3-(2-(isobutoxymethyl)-4-oxo-1,3,8-triazaspiro[4.5]dec-1-enecarbonyl)-7-methoxybenzo[b]thiophen-2-yl)urea], for which the 50% inhibitory concentration (IC50) in experiment [1] and in experiment [2] was less than 1 µM each time.

As for `CCNC(=O)Nc1sc2c(OC)cccc2c1C(=O)N1CCC2(CC1)N=C(COC1CCCCC1)NC2=O` [Compound 32, 1-(3-(2-(cyclohexyloxymethyl)-4-oxo-1,3,8-triazaspiro[4.5]dec-1-enecarbonyl)-7-methoxybenzo[b]thiophen-2-yl)-3-ethylurea], the IC50 in experiment [1] and in experiment [2] was less than 1 µM in each case.

`CCNC(=O)Nc1sc2ccccc2c1C(=O)N1CCC2(CC1)N=C(Cn1ccccc1=O)NC2=O` [Compound 33, 1-ethyl-3-(3-(4-oxo-2-((2-oxopyridin-1(2 H)-yl)methyl)-1,3,8-triazaspiro[4.5]dec-1-enecarbonyl)benzo[b]thiophen-2-yl)urea]: the results for the IC50 in experiment [1] and in experiment [2] were greater than 10 µM and 1 to 10 µM, respectively.

Take `CCNC(=O)Nc1sc2ccccc2c1C(=O)N1CCC2(CC1)N=C(Cn1cc(CN)nn1)NC2=O` [Compound 34, 1-(3-(2-((4-(aminomethyl)-1 H-1,2,3-triazol-1-yl)methyl)-4-oxo-1,3,8-triazaspiro[4.5]dec-1-enecarbonyl)benzo[b]thiophen-2-yl)-3-ethylurea]: the IC50 in experiment [1] and in experiment [2] was greater than 10 µM each time.

As to `CCNC(=O)Nc1sc2ccccc2c1C(=O)N1CCC2(CC1)N=C(Cn1cc(CN(C)C)nn1)NC2=O` [Compound 35, 1-(3-(2-((4-((dimethylamino)methyl)-1 H-1,2,3-triazol-1-yl)methyl)-4-oxo-1,3,8-triazaspiro[4.5]dec-1-enecarbonyl)benzo[b]thiophen-2-yl)-3-ethylurea], the IC50 is greater than 10 µM in experiment [1] and 1 to 10 µM in experiment [2].

`CCNC(=O)Nc1sc2ccccc2c1C(=O)N1CCC2(CC1)N=C(Cn1cc(C(C)(C)C)nn1)NC2=O` [Compound 36, 1-(3-(2-((4-tert-butyl-1 H-1,2,3-triazol-1-yl)methyl)-4-oxo-1,3,8-triazaspiro[4.5]dec-1-enecarbonyl)benzo[b]thiophen-2-yl)-3-ethylurea]: the IC50 in experiment [1] is 1 to 10 µM; in experiment [2] it was less than 1 µM.

For `CCNC(=O)Nc1sc2ccccc2c1C(=O)N1CCC2(CC1)N=C(Cn1cc(CO)nn1)NC2=O` [Compound 37, 1-ethyl-3-(3-(2-((4-(hydroxymethyl)-1 H-1,2,3-triazol-1-yl)methyl)-4-oxo-1,3,8-triazaspiro[4.5]dec-1-enecarbonyl)benzo[b]thiophen-2-yl)urea], the results for the IC50 in experiment [1] and in experiment [2] were greater than 10 µM and 1 to 10 µM, respectively.

Regarding `CCNC(=O)Nc1sc2ccccc2c1C(=O)N1CCC2(CC1)N=C(Cn1cc(C3CC3)nn1)NC2=O` [Compound 38, 1-(3-(2-((4-cyclopropyl-1 H-1,2,3-triazol-1-yl)methyl)-4-oxo-1,3,8-triazaspiro[4.5]dec-1-enecarbonyl)benzo[b]thiophen-2-yl)-3-ethylurea], the results for the IC50 in experiment [1] and in experiment [2] were 1 to 10 µM and less than 1 µM, respectively.

(Values after US7981904B2, “Acetyl CoA carboxylase inhibitors” (Takeda Pharmaceutical Company Limited, priority 2008, dated 2011).)
